ChEMBL document CHEMBL6134843, “HDAC11 Inhibition as a Potential Therapeutic Strategy for AML: Target Identification, Lead Discovery, Antitumor Potency, and Mechanism Investigation” (J Med Chem, 2025)
Active and inactive are the calls of the source. The calls are words filed in the database; no cut-off is given here.

How the values were obtained:
[1] = tested on: Acute myeloid leukemic cell; assay: Induction of ferroptosis in human Acute myeloid leukemic cells assessed as upregulation of FTH1 protein level at 2.5 to 10 uM by Western blot analysis; format: functional, cell-based; settings: dose 2.5-10 µM
[2] = Antitumor activity against mouse MLL-AF9 cells allografted in female C57BL/6 mouse model assessed as GFP positive leukemic cells in peripheral blood at 50 mg/kg, ip administered once daily for 32 days by FITC staining based analysis (reference value: 72.5 %); format: functional; settings: time 32 day
U-937 [3] = assay: Induction of ferroptosis in human U-937 cells assessed as increase in ferrous ion accumulation at 100 uM incubated for 48 hrs by RhoNox-1 staining based flow cytometry analysis; format: functional, cell-based
[4] = AUC (0 to infinity) in ICR(CD-1) mouse at 5 mg/kg, iv treated up to 24 hrs by LC-MS/MS analysis; format: ADME, organism-based; settings: in vivo
U-937 [5] = assay: Effect on MOAP1 gene expression in human U-937 cells at 10 uM incubated for 48 hrs by RT-qPCR; format: functional, cell-based
U-937 [6] = assay: Induction of ferroptosis in human U-937 cells assessed as increase in ferrous ion accumulation incubated for 48 hrs by RhoNox-1 staining based flow cytometry analysis; format: functional, cell-based; settings: dose 2.5-10 µM
U-937 [7] = assay: Induction of ferroptosis in human U-937 cells assessed as increase in cellular ROS accumulation at 10 uM in presence of Zinc protoporphyrin by flow cytometry analysis; format: functional, cell-based
[8] = Toxicity in female C57BL/6 mouse model assessed as increase in survival rate at 50 mg/kg, ip administered once daily in presence of cytarabine by Kaplan Mayer survival analysis; format: organism-based; settings: in vivo
U-937 [9] = assay: Induction of ferroptosis in human U-937 cells assessed as increase in ROS generation at 5 uM incubated for 48 hrs in presence of ferrostatin-1 by DCFH-DA staining based flow cytometry analysis; format: functional, cell-based
[10] = tested on: Acute myeloid leukemic cell; assay: Induction of ferroptosis in human Acute myeloid leukemic cells assessed as […] of ACSL4 mRNA level by RT-qPCR analysis; format: functional, cell-based
U-937 [11] = assay: Antitumor activity against human U-937 cells assessed as cell growth inhibition incubated for 2 days by CCK-8 assay; settings: U-937, 48 h
OCI-AML2 [12] = assay: Induction of ferroptosis in human OCI-AML2 cells assessed as increase in ferrous ion accumulation at 100 uM incubated for 48 hrs by RhoNox-1 staining based flow cytometry analysis; format: functional, cell-based
OCI-AML2 [13] = assay: Antiproliferative activity against human OCI-AML2 cells assessed as cell growth inhibition incubated for 2 days by CCK-8 assay; settings: OCI-AML2, 48 h
OCI-AML2 [14] = assay: Induction of cell differentiation in human OCI-AML2 cells assessed as increase in CD11b expression at 5 uM incubated for 48 hrs by flow cytometry analysis; format: functional, cell-based
[15] = tested on: Acute myeloid leukemic cell; assay: Induction of ferroptosis in human Acute myeloid leukemic cells assessed as upregulation of TF protein level at 2.5 to 10 uM by Western blot analysis; format: functional, cell-based; settings: dose 2.5-10 µM
[16] = tested on: Acute myeloid leukemic cell; assay: Induction of ferroptosis in human Acute myeloid leukemic cells assessed as downregulation of GPX4 level by Western blot analysis; format: functional, cell-based
MLL-AF9 = assay: Synergistic antitumor activity against mouse MLL-AF9 at 1 to 4 uM in presence of cytarabine by CCK-8 assay; format: functional, cell-based; settings: dose 1-4 µM
OCI-AML2 [17] = assay: Induction of ferroptosis in human OCI-AML2 cells assessed as increase in malondialdehyde level at 5 uM incubated for 48 hrs in presence of ferrostatin-1; format: functional, cell-based
[18] = Bioavailability in ICR(CD-1) mouse at 50 mg/kg, ip treated up to 24 hrs by LC-MS/MS analysis; format: ADME, organism-based; settings: in vivo
[19] = Antitumor activity against mouse MLL-AF9 cells allografted in female C57BL/6 mouse model assessed as GFP positive leukemic cells in peripheral blood at 50 mg/kg, ip administered once daily for 32 days in presence of cytarabine by FITC staining based analysis (reference value: 72.5 %); format: functional; settings: time 32 day
OCI-AML2 [20] = assay: Induction of cell cycle arrest in human OCI-AML2 cells assessed as accumulation of cells at G1 phase at 5 uM incubated for 48 hrs by EdU/DAPI staining based flow cytometry analysis; format: functional
MOLM-13 = assay: Antiproliferative activity against human MOLM-13 cells assessed as cell growth inhibition incubated for 2 days by CCK-8 assay; settings: MOLM-13, 48 h
[21] = Induction of cell apoptosis in human THP-1 cells at 5 uM incubated for 48 hrs by Annexin V/DAPI staining based flow cytometry analysis relative to control; format: functional
U-937 [22] = assay: Effect on MYC gene expression in human U-937 cells at 10 uM incubated for 48 hrs by RT-qPCR; format: functional, cell-based
[23] = Toxicity in female C57BL/6 mouse model assessed as change in body weight at 50 mg/kg, ip administered once daily in presence of cytarabine; format: organism-based; settings: in vivo
U-937 [24] = assay: Effect on TP53 gene expression in human U-937 cells at 10 uM incubated for 48 hrs by RT-qPCR; format: functional, cell-based
[25] = tested on: Acute myeloid leukemic cell; assay: Induction of ferroptosis in human Acute myeloid leukemic cells assessed as upregulation of FTH1 mRNA level by RT-qPCR analysis; format: functional, cell-based
[26] = target: Keap1/Nrf2 (Homo sapiens) (UniProt Q16236+Q14145); assay: Activation of Keap1-Nrf2 signaling pathway in human U-937 cells assessed as upregulation of HMOX1 at 5 uM in presence of K67 by Western blot analysis; format: cell-based
Keap1/Nrf2 (Homo sapiens), sequence (Q14145 whole entry, looked up): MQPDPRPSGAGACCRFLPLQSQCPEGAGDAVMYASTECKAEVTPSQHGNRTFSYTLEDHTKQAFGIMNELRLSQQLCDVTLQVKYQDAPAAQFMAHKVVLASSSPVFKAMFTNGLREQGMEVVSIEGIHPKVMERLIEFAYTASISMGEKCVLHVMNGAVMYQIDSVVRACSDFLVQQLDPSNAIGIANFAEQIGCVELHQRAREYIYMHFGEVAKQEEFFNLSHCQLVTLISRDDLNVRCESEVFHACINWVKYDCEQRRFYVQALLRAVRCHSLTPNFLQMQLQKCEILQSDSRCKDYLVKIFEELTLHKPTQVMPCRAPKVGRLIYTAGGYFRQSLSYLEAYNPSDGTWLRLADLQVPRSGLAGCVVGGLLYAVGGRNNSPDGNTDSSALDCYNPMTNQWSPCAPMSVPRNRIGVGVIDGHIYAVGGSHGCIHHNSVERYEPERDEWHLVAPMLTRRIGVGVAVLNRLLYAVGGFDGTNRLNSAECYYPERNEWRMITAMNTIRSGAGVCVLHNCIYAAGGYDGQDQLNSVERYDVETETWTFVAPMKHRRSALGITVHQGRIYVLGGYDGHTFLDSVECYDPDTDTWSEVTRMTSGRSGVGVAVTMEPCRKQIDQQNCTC
Keap1/Nrf2 (Homo sapiens), sequence (Q16236 whole entry, looked up): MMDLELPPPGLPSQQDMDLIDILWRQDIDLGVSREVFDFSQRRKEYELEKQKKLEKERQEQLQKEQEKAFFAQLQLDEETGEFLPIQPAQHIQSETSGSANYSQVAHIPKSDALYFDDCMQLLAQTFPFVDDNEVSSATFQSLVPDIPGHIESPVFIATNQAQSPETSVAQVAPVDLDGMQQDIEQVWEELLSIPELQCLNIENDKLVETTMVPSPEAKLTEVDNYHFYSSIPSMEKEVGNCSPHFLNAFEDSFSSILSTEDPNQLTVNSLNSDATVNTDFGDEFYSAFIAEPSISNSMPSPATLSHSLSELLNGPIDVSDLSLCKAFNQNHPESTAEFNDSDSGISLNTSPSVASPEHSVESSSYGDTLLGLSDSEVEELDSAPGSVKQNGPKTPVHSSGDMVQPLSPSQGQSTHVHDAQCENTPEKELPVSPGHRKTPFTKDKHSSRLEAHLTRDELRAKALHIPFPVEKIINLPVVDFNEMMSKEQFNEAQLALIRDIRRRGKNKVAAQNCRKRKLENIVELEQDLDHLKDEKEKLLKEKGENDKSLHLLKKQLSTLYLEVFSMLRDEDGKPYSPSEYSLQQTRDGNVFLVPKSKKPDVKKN

[27] = tested on: Acute myeloid leukemic cell; assay: Induction of ferroptosis in human Acute myeloid leukemic cells assessed as upregulation of FTL mRNA level by RT-qPCR analysis; format: functional, cell-based
OCI-AML-3 = assay: Antiproliferative activity against human OCI-AML-3 cells assessed as cell growth inhibition incubated for 2 days by CCK-8 assay; settings: OCI-AML-3, 48 h
U-937 [28] = assay: Induction of ferroptosis in human U-937 cells assessed as increase in ferrous ion accumulation at 5 uM incubated for 48 hrs by RhoNox-1 staining based flow cytometry analysis; format: functional, cell-based
OCI-AML2 [29] = assay: Induction of ferroptosis in human OCI-AML2 cells assessed as increase in ROS generation at 5 uM incubated for 48 hrs in presence of ferrostatin-1 by DCFH-DA staining based flow cytometry analysis; format: functional, cell-based
U-937 [30] = assay: Induction of ferroptosis in human U-937 cells assessed as increase in lipid peroxidation level incubated for 48 hrs by C11-BODIPY 581/591 staining based flow cytometry analysis; format: functional, cell-based; settings: dose 2.5-10 µM
[31] = Induction of cell apoptosis in human OCI-AML-3 cells at 5 uM incubated for 48 hrs by Annexin V/DAPI staining based flow cytometry analysis relative to control; format: functional
[32] = Half life in ICR(CD-1) mouse at 50 mg/kg, ip treated up to 24 hrs by LC-MS/MS analysis; format: ADME, organism-based; settings: in vivo
U-937 [33] = assay: Effect on DDIT3 gene expression in human U-937 cells at 10 uM incubated for 48 hrs by RT-qPCR; format: functional, cell-based
[34] = Clearance in ICR(CD-1) mouse at 5 mg/kg, iv treated up to 24 hrs by LC-MS/MS analysis; format: ADME, organism-based; settings: in vivo
U-937 [35] = assay: Induction of ferroptosis in human U-937 cells assessed as increase in malondialdehyde level at 5 uM incubated for 48 hrs; format: functional, cell-based

For `O=C(NO)c1cccc2[nH]c(C#Cc3cccc(C(F)(F)F)c3)cc12`, the Activity [1] was “Active”, the Activity [2] was 17.2% and the Activity (U-937 [3]) was “Active”. For the same compound, the AUC(0-inf) [4] was 625 ng·h/mL, the Activity (U-937 [5]) was “Active” and the Activity (U-937 [6]) was “Dose-dependent-effect”. The Activity (U-937 [7]) was “Active”, the Activity [8] was “Non-toxic” and the Activity (U-937 [9]) was “inactive”. For the same compound, the Activity [10] was “Active”, the IC50 (U-937 [11]) was 9.66 µM and the Activity (OCI-AML2 [12]) was “Active”. The IC50 (OCI-AML2 [13]) was 8.07 µM, the Activity (OCI-AML2 [14]) was “Active” and the Activity [15] was “Active”. The Activity [16] was “Active”, the Activity (MLL-AF9) was “Active” and the Activity (OCI-AML2 [17]) was “inactive”. For the same compound, the bioavailability [18] was 32%, the Activity [19] was 4.3% and the Activity (OCI-AML2 [20]) was “Dose-dependent-effect”. The IC50 (MOLM-13) was at most 10 µM, the Activity [21] was about 20% and the Activity (U-937 [22]) was “Active”. The Activity [23] was “Non-toxic”, the Activity (U-937 [24]) was “Active” and the Activity [25] was “Active”. For the same compound, the Activity [26] was “inactive”, the Activity [27] was “Active” and the IC50 (OCI-AML-3) was at most 10 µM. The Activity (U-937 [28]) was “Active”, the Activity (OCI-AML2 [29]) was “inactive” and the Activity (U-937 [30]) was “Dose-dependent-effect”. For the same compound, the Activity [31] was about 20%, the half-life [32] was 537 min and the Activity (U-937 [33]) was “Active”. For the same compound, the clearance [34] was 134 mL/min/kg and the Activity (U-937 [35]) was “Active”.
